Test results taken from patent publication US10391071B2, “Compositions comprising valerian extracts” (Cutech SRL, priority 2015, dated 2019).

Legend:
[1] = test system: human skin subcutis; assay: Normalized total lipids in subcutis of ex-vivo cultured full-thickness human skin; format: cell-based; settings: for Total lipid content in skin subcutis samples, % ratio of the control group performance (Average): Table 9, abdominal skin, six days of organ culture (five of treatment)
Source text: The reported examples from 19 to 23 are intended to show the modulation of adipocyte lipid content exerted by the experimental preparations on human skin subcutis. Full-thickness ex-vivo human skin samples, including the subcutis, were ex-vivo cultured and treated with compounds obtained from valerian extract, i.e. valerenic acid (VA) and pentanoic acid (AP), in order to evaluate their activity on the lipid metabolism.
The responses of the treated tissues, in comparison to the untreated group, were evaluated after 6 days of culture, by isolating the subcutis of each skin sample and then estimating its normalized content in total lipids.
Cylindrical pieces (7 mm in diameter) of full thickness human skin were excised from an abdominal skin sample paying attention to preserve the subcutis. These organ samples were seeded in 24-well plates at a density of 1 sample/well with 500 μl of culture medium, and cultured up to day 6. The samples submitted to experimental treatments received medium supplemented with VA at 0.5, 5 and 50 μM or PA at 0.2 and 2 μM. After the first day of culture, the samples were arranged in experimental groups including 4 samples each one. The control group received modified William E medium, while the samples submitted to experimental treatments received the same medium supplemented with the extracts. The culture medium was renewed every other day. After six days of organ culture (five of treatment), the subcutis of each skin sample was separated from the dermis and its total content of lipids and proteins was quantified. […] As a result, when lipogenesis is stimulated, an increase in the “total lipids/total proteins ratio”, hereinafter defined “normalized total lipids”, is expected, while the contrary occurs in the case of increased lipolysis.
The analytical protocol adopted to detect values of “normalized total lipids” is described below: • each subcutis sample was homogenized in 1 ml of isopropyl alcohol; • the sample was centrifuged at 14,000 G for 5 minutes and then the supernatant (containing the extracted lipids) was collected; • the supernatant was diluted 10 fold with isopropyl alcohol; • the diluted lipid extract was analysed with a Direct Detect IR Spectrometer (Millipore), which provided the total lipid concentration of the supernatant (mg/ml); • the total lipids of the subcutis sample was quantified multiplying the supernatant lipid concentration (indention 4) by the preliminary dilution factor (indention 3) and then by the volume of isopropyl alcohol used for the lipid extraction (indention 1); • the residual pellet obtained from indention 2 was washed with 1 ml of isopropyl alcohol and, after another centrifugation this solvent was withdrawn; • the pellet was dried in a vacuum dry evaporator and then homogenized in 100 ul of proteolytic buffer (20 mM Tris HCI pH 7.5, 150 mM NaCl, 2 mM EDTA, 0.5% Triton X-100, 2 mM DTT, 1% protease inhibitor cocktail); • the extractive mixture was centrifuged at 14,000 G for 10 minutes and the supernatant was collected and analysed with a Direct Detect IR Spectrometer (Millipore), which provided the total protein concentration of the supernatant (mg/ml); • the obtained total protein concentration was multiplied by the extractive volume (indention 7) in order to quantify the total proteins of the subcutis sample; • the total lipids (indention 5) were divided by the total proteins (indention 9) in order to obtain the amount of lipids per mg of proteins relative to the processed subcutis sample.

[2] = test system: human sebaceous glands (hSGs); assay: Sebum content in ex-vivo cultured human sebaceous glands (hSGs), lipids normalized to proteins; format: cell-based
Source text: The following examples are intended to show the modulation of sebum production exerted by the experimental preparations on human sebaceous glands (hSGs) microdissected and cultivated up to day 6. At the end of the culture time, the sebum is extracted and quantified from each experimental group of hSGs and then normalized by the proteins extracted from the residual hSG material (mg lipids/mg proteins). As a result, the biological activity of the tested compounds is inferred by comparing the lipids/proteins ratio of the treated glands with that of the control group. A detailed methodology is reported in EP14179936.1 (Cutech Srl) The adopted experimental model is based on the cultivation of ex-vivo hSGs at constant concentrations of valerian extracts or purified derivatives. This experimental condition is not reproducible in vivo since both topical and oral administration produce fluctuating concentrations, depending on the frequency and composition of the treatment. […] The control group was cultured in standard medium, whereas a 5 μM Capsaicin treatment was included in the experimental design as positive control. Capsaicin is an active component of chili peppers suitable to inhibit sebogenesis [Tóth et al., 2009, J. Invest. Derm. 129: 329-339]. The effect of the treatment was evaluated by assessing the amounts of normalized lipids obtained from the treated groups, i.e. the quantitive ratio beween sebum lipids and proteins extracted from each group of hSGs (mg of lipids/mg of proteins), with respect to the value obtained from the control group. The results were expressed in percentage values, assuming the normalized lipids obtained from the control group as reference value (100%).

[3] = Table 1, scalp sample donor, 6 days culture, 5 μM

Q: Which results are given for `COc1cc(CNC(=O)CCCC/C=C/C(C)C)ccc1O` [Capsaicin, reference compound]?
A: Total lipid content in skin subcutis samples, % ratio of the control group performance (Average) ([1]; 5 μM): 73.6%; reduction of sebum content of the hSGs in comparison with the control group ([2]; Examples 1 to 4 donor, positive control 5 μM): 17%; reduction of hSGs sebum content in comparison with the control group ([2]; Examples 5 to 7 donor, positive control 5 μM): 10%; response of sebum production versus control ([2]; Examples 22 to 25, positive control 5 μM): −17%; Sebum content in hSGs, % ratio of the control group performance (Average) [2, 3]: 83.3%; Sebum content in hSGs, % ratio of the control group performance (Average) ([2]; Table 2, another donor, 5 μM): 90.2%; Sebum content in hSGs, % ratio of the control group performance (Average) ([2]; Table 4, another donor, 5 μM): 37.2%; Sebum content in hSGs, % ratio of the control group performance (Average) ([2]; Table 5, 5 μM): 45.6%; Sebum content in hSGs, % ratio of the control group performance (Average) ([2]; Table 6, same donor, 5 μM): 59.2%; Sebum content in hSGs, % ratio of the control group performance (Average) ([2]; Table 7, 5 μM): 83.0%

Q: Which results are given for `CCCCC(=O)O` [PA, pentanoic acid]?
A: Total lipid content in skin subcutis samples, % ratio of the control group performance (Average) ([1]; 0.2 μM): 82.6%; Total lipid content in skin subcutis samples, % ratio of the control group performance (Average) ([1]; 2.0 μM): 91.6%; reduction in total lipid content of skin subcutis ([1]; concentration not given): 17.8%; Sebum content in hSGs, % ratio of the control group performance (Average) ([2]; Table 5, 0.2 mM): 57.3%; Sebum content in hSGs, % ratio of the control group performance (Average) ([2]; Table 5, 2 mM): 65.6%; Sebum content in hSGs, % ratio of the control group performance (Average) ([2]; Table 6, same donor, 0.02 mM): 62.5%; Sebum content in hSGs, % ratio of the control group performance (Average) ([2]; Table 6, same donor, 0.2 mM): 60.9%; Sebum content in hSGs, % ratio of the control group performance (Average) ([2]; Table 6, same donor, 2.0 mM): 75.4%

Q: How did the “response of lipid content in the skin subcutis versus control” value ([1]; 5.0 μM) turn out when `CC1=C2[C@H](/C=C(\C)C(=O)O)CC[C@@H](C)[C@H]2CC1` [VA, valerenic acid] was run?
A: −44.7%

Q: What about the “Total lipid content in skin subcutis samples, % ratio of the control group performance (Average)” value ([1]; 0.5 μM) of the same compound?
A: 63.9%

Q: And the “Total lipid content in skin subcutis samples, % ratio of the control group performance (Average)” value ([1]; 5 μM)?
A: 55.3%

Q: And the “Total lipid content in skin subcutis samples, % ratio of the control group performance (Average)” value ([1]; 50.0 μM)?
A: 59.0%

Q: And the “reduction of sebum content in the hSGs” value ([2]; Examples 1 to 4 donor, 0.5 μM)?
A: 26%

Q: What about the “concentration range producing sebogenesis inhibition (very effective)” value ([2]; Examples 5 to 7 donor) of the same compound?
A: 0.05 to 5 µM

Q: And the “reduction of sebogenesis (change versus control)” value ([2]; Examples 26 to 27, 0.5 μM)?
A: −29%

Q: And the “Sebum content in hSGs, % ratio of the control group performance (Average)” value (from here on “Sebum content in hSGs, % ratio”) ([2]; Table 1, scalp sample donor, 6 days culture, 0.05 μM)?
A: 98.9%

Q: What about the “Sebum content in hSGs, % ratio” value ([2]; Table 1, scalp sample donor, 6 days culture, 0.5 μM) of the same compound?
A: 74.2%

Q: And the “Sebum content in hSGs, % ratio” value [2, 3]?
A: 88.0%

Q: What about the “Sebum content in hSGs, % ratio” value ([2]; Table 1, scalp sample donor, 6 days culture, 50 μM) of the same compound?
A: 88.6%

Q: What about the “Sebum content in hSGs, % ratio” value ([2]; Table 2, another donor, 0.05 μM) of the same compound?
A: 85.6%

Q: And the “Sebum content in hSGs, % ratio” value ([2]; Table 2, another donor, 0.5 μM)?
A: 61.2%

Q: And the “Sebum content in hSGs, % ratio” value ([2]; Table 2, another donor, 5 μM)?
A: 88.5%

Q: And the “Sebum content in hSGs, % ratio” value ([2]; Table 3, another donor, 0.05 μM)?
A: 75.0%

Q: And the “Sebum content in hSGs, % ratio” value ([2]; Table 3, another donor, 0.5 μM)?
A: 89.0%

Q: What about the “Sebum content in hSGs, % ratio” value ([2]; Table 4, another donor, 0.05 μM) of the same compound?
A: 54.1%

Q: And the “Sebum content in hSGs, % ratio” value ([2]; Table 4, another donor, 0.5 μM)?
A: 63.9%

Q: And the “Sebum content in hSGs, % ratio” value ([2]; Table 6, same donor, 0.05 μM)?
A: 41.4%

Q: What about the “Sebum content in hSGs, % ratio” value ([2]; Table 6, same donor, 0.5 μM) of the same compound?
A: 50.4%

Q: What about the “Sebum content in hSGs, % ratio” value ([2]; Table 6, same donor, 5 μM) of the same compound?
A: 70.7%

Q: And the “Sebum content in hSGs, % ratio” value ([2]; Table 8, 0.5 μM)?
A: 71.4%
